Converted amounts (≈) assume the structure as drawn.
Legend:
Format in all cases: cell-based
[1] = tested on: Acinetobacter baumannii ATCC 19606; test: Minimum Inhibitory Concentration (MIC) in LB media; conditions: ATCC19606
Procedure: (§1) Biological Activity (Antibacterial activity): The compounds of Formula (I) are of interest due to their potent antibacterial effects. […] The medium sterility is checked by incubating at 37° C. for a period of 48 h. Bacterial cultures that are stored as glycerol stocks at -80° C. are sub cultured on LB agar plates to obtain isolated colonies. A single colony of each strain is cultured in LB broth. The cultures are incubated at 37° C., 200 rpm till they reach an optical density (OD at 600 nm) of 0.8 to 1. […] Test compounds are dissolved in dimethyl sulfoxide (DMSO) to a stock concentration of 4 mg/mi. A twofold dilution series of this DMSO stock is prepared in a 96 well V bottom microtitre plate from rows A to H. A 3 μL volume of these dilutions are transferred to a 96-well flat bottom microtitre assay plate. Controls to monitor the effects of DMSO and media sterility are included. Each well is inoculated with 150 μL of the above diluted culture. The plates are incubated at 37° C. overnight in a humidified incubator. The following morning, the plates are read using a Spectrophotometer at 600 nm wavelength.

[2] = tested on: Enterococcus faecalis ATCC 29212; test: Minimum Inhibitory Concentration (MIC) in LB media; conditions: ATCC29212, read-out: Minimum Inhibitory Concentration E. faecalis ATCC 29212
Procedure: as §1

[3] = tested on: Escherichia coli ATCC 25922; test: Minimum Inhibitory Concentration (MIC) in LB media; conditions: ATCC25922, read-out: Minimum Inhibitory Concentration E. coli ATCC 25922
Procedure: as §1

[4] = tested on: Klebsiella pneumoniae ATCC 13883; test: Minimum Inhibitory Concentration (MIC) in LB media; conditions: ATCC13883, read-out: Minimum Inhibitory Concentration K. pneumoniae ATCC 13883
Procedure: as §1

[5] = tested on: Pseudomonas aeruginosa ATCC 27853; test: Minimum Inhibitory Concentration (MIC) in LB media; conditions: ATCC27853, read-out: Minimum Inhibitory Concentration P. aurigenosa ATCC 27853
Procedure: as §1

[6] = tested on: Staphylococcus aureus ATCC 29213; test: Minimum Inhibitory Concentration (MIC) in LB media; conditions: ATCC29213, read-out: Minimum Inhibitory Concentration S. aureus ATCC 29213
Procedure: as §1

[7] = biological target: human ether a go-go related gene (hERG) K+ channel (Homo sapiens (Human), UniProt Q12809); test: hERG inhibition assay, QPatch HTX automated electrophysiology; conditions: CHO cell line stably expressing hERG, whole-cell patch clamp, maximum test concentration 300 μM
Sequence of human ether a go-go related gene (hERG) K+ channel (Q12809 whole entry): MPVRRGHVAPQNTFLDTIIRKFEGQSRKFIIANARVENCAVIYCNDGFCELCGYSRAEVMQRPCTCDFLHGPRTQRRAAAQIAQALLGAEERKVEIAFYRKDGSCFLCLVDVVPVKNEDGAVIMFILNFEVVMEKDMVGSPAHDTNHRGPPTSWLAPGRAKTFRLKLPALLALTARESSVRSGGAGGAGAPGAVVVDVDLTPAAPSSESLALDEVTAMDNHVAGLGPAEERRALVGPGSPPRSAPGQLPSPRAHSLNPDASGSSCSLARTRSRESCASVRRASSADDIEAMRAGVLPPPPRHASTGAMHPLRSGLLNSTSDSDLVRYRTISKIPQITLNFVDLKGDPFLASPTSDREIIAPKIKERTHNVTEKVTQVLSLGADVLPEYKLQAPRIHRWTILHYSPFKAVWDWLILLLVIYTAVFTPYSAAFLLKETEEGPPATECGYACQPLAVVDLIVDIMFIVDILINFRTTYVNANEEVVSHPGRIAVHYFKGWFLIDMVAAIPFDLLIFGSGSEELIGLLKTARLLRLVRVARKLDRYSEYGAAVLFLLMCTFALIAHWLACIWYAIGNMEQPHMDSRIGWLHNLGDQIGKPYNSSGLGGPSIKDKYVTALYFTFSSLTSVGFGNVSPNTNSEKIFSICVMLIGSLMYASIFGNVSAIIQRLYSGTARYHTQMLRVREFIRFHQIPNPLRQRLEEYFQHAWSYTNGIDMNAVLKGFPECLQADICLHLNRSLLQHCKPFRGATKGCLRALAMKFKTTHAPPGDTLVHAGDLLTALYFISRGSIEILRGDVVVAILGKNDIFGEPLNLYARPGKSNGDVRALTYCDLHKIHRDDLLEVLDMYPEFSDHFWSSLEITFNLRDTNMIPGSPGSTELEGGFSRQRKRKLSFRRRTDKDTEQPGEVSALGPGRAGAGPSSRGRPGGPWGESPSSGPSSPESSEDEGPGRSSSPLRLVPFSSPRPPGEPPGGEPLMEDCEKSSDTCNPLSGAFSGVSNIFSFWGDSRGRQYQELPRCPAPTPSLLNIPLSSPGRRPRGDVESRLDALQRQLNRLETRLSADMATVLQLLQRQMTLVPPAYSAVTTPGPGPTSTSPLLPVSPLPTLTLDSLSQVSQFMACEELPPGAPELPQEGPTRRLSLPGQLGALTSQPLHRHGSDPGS
Procedure: The compounds were tested for inhibition of the human ether a go-go related gene (hERG) K+ channel using QPatch HTX automated electrophysiology. […] Compounds were solubilised to 100 mM in DMSO before dilution in HBPS to 300 μM. […] Electrophysiological recordings were made from a Chinese Hamster Ovary cell line stably expressing the full-length hERG potassium channel. Single cell ionic currents were measured in whole-cell patch clamp configuration at room temperature (21-23° C.) using the QPatch HTX platform (Sophion). Intracellular solution contained (mM): 120 KF, 20 KCl, 10 EGTA, 10 HEPES and was buffered to pH 7.3. […] Cells were clamped at a holding potential of −80 mV. Cells were stepped to +20 mV for 2 s then −40 mV for 3s before returning to the holding potential. This sweep was repeated 10 times at 10 s intervals. hERG currents were measured from the tail step and referenced to the holding current. Compounds were then incubated for 2 minutes prior to a second measurement of ion channel current using an identical pulse train.

E. coli clinical strains = test: Antibacterial susceptibility studies (MIC50 and MIC90), clinical strains, CLSI guidelines
[8] = tested on: A. baumannii clinical strains; test: as above
[9] = tested on: K. pneumoniae clinical strains; test: as above
[10] = tested on: P. aurigenosa clinical strains; test: as above
[11] = tested on: E. cloacae clinical strains; test: as above
E. coli ATCC25922 = test: Antibacterial susceptibility study, reference strain, CLSI guidelines
A. baumannii ATCC19606 = test: as above
K. pneumoniae ATCC13883 = test: as above
P. aurigenosa ATCC27853 = test: as above

| SMILES | MIC [1] | MIC [2] | MIC [3] | MIC [4] | MIC [5] | MIC [6] | IC50 [7] | further results |
| --- | --- | --- | --- | --- | --- | --- | --- | --- |
| O=C(O)c1cn(C2CC2)c2cc(N3CCNCC3)c(F)cc2c1=O [Ciprofloxacin, reference compound] | 0.4 µg/mL (≈ 1.21 µM) | 0.4 µg/mL (≈ 1.21 µM) | 0.012 µg/mL (≈ 0.0362 µM) | 0.05 µg/mL (≈ 0.151 µM) | 0.1 µg/mL (≈ 0.302 µM) | 0.4 µg/mL (≈ 1.21 µM) |  |  |
| Cn1c(=O)cnc2ccc(OCCNCCC3CN(c4ccc5c(n4)NC(=O)CO5)C(=O)O3)nc21 (centres unmarked) [Compound 1, 6-(5-(2-((2-((4-methyl-3-oxo-3,4-dihydropyrido[2,3-b]pyrazin-6-yl)oxy)ethyl)amino)ethyl)-2-oxooxazolidin-3-yl)-2H-pyrido[3,2-b][1,4]oxazin-3(4H)-one] | 0.06 µg/mL (≈ 0.125 µM) | 0.5 µg/mL (≈ 1.04 µM) | 0.06 µg/mL (≈ 0.125 µM) | 0.25 µg/mL (≈ 0.519 µM) | 1 µg/mL (≈ 2.08 µM) | 0.13 µg/mL (≈ 0.27 µM) |  |  |
| Cn1c(=O)ccc2ncc(OCCNCCC3CN(c4ccc5c(n4)NC(=O)CO5)C(=O)O3)nc21 (centres unmarked) [Compound 2, 6-(5-(2-((2-((5-methyl-6-oxo-5,6-dihydropyrido[2,3-b]pyrazin-3-yl)oxy)ethyl)amino)ethyl)-2-oxooxazolidin-3-yl)-2H-pyrido[3,2-b][1,4]oxazin-3(4H)-one] | 0.06 µg/mL (≈ 0.125 µM) | 1 µg/mL (≈ 2.08 µM) | 0.13 µg/mL (≈ 0.27 µM) | 0.25 µg/mL (≈ 0.519 µM) | 0.5 µg/mL (≈ 1.04 µM) | 0.06 µg/mL (≈ 0.125 µM) |  |  |
| Cn1c(=O)cnc2ccc(OCCNC[C@H]3CN(c4ccc5c(n4)NC(=O)CO5)C(=O)O3)nc21 [Compound 3, (S)-6-(5-(((2-((4-methyl-3-oxo-3,4-dihydropyrido[2,3-b]pyrazin-6-yl)oxy)ethyl)amino)methyl)-2-oxooxazolidin-3-yl)-2H1-pyrido[3,2-b][1,4]oxazin-3(4H)-one] | 0.06 µg/mL (≈ 0.128 µM) | 0.25 µg/mL (≈ 0.535 µM) | 0.06 µg/mL (≈ 0.128 µM) | 0.25 µg/mL (≈ 0.535 µM) | 2 µg/mL (≈ 4.28 µM) | 0.06 µg/mL (≈ 0.128 µM) | 40 µM |  |
| Cn1c(=O)cnc2ccc(OCCNC[C@@H]3CN(c4ccc5c(n4)NC(=O)CO5)C(=O)O3)nc21 [Compound 4, (R)-6-(5-(((2-((4-methyl-3-oxo-3,4-dihydropyrido[2,3-b]pyrazin-6-yl)oxy)ethyl)amino)methyl)-2-oxooxazolidin-3-yl)-2H-pyrido[3,2-b][1,4]oxazin-3(4H)-one] | 0.06 µg/mL (≈ 0.128 µM) | 0.25 µg/mL (≈ 0.535 µM) | 0.06 µg/mL (≈ 0.128 µM) | 0.25 µg/mL (≈ 0.535 µM) | 2 µg/mL (≈ 4.28 µM) | 0.06 µg/mL (≈ 0.128 µM) | 38 µM |  |
| Cn1c(=O)ccc2ncc(OCCNC[C@H]3CN(c4ccc5c(n4)NC(=O)CO5)C(=O)O3)nc21 [Compound 5, (S)-6-(5-(((2-((5-methyl-6-oxo-5,6-dihydropyrido[2,3-b]pyrazin-3-yl)oxy)ethyl)amino)methyl)-2-oxooxazolidin-3-yl)-2H1-pyrido[3,2-b][1,4]oxazin-3(4H)-one] | 0.25 µg/mL (≈ 0.535 µM) | 0.5 µg/mL (≈ 1.07 µM) | 0.25 µg/mL (≈ 0.535 µM) | 0.25 µg/mL (≈ 0.535 µM) | 4 µg/mL (≈ 8.56 µM) | 0.25 µg/mL (≈ 0.535 µM) | 82 µM |  |
| Cn1c(=O)ccc2ncc(OCCNC[C@@H]3CN(c4ccc5c(n4)NC(=O)CO5)C(=O)O3)nc21 [Compound 6, (R)-6-(5-(((2-((5-methyl-6-oxo-5,6-dihydropyrido[2,3-b]pyrazin-3-yl)oxy)ethyl)amino)methyl)-2-oxooxazolidin-3-yl)-2H-pyrido[3,2-b][1,4]oxazin-3(4H)-one] | 0.13 µg/mL (≈ 0.278 µM) | 0.25 µg/mL (≈ 0.535 µM) | 0.13 µg/mL (≈ 0.278 µM) | 0.25 µg/mL (≈ 0.535 µM) | 2 µg/mL (≈ 4.28 µM) | 0.13 µg/mL (≈ 0.278 µM) | 60 µM |  |
| Cn1c(=O)cnc2ccc(OCCNC[C@@H]3CN(c4cnc5c(n4)NC(=O)CO5)C(=O)O3)nc21 [Compound 8, (R)-6-(5-(((2-((4-methyl-3-oxo-3,4-dihydropyrido[2,3-b]pyrazin-6-yl)oxy)ethyl)amino)methyl)-2-oxooxazolidin-3-yl)-2H1-pyrazino[2,3-b][1,4]oxazin-3(4H)-one] | 0.5 µg/mL (≈ 1.07 µM) | 0.5 µg/mL (≈ 1.07 µM) | 0.06 µg/mL (≈ 0.128 µM) | 0.25 µg/mL (≈ 0.534 µM) | 1 µg/mL (≈ 2.13 µM) | 0.125 µg/mL (≈ 0.267 µM) | > 300 µM |  |
| Cn1c(=O)cnc2cc(F)c(OCCNC[C@H]3CN(c4cnc5c(n4)NC(=O)CO5)C(=O)O3)nc21 [Compound 10, (S)-6-(5-(((2-((7-fluoro-4-methyl-3-oxo-3,4-dihydropyrido[2,3-b]pyrazin-6-yl)oxy)ethyl)amino)methyl)-2-oxooxazolidin-3-yl)-2H-pyrazino[2,3-b][1,4]oxazin-3(4H)-one] | 0.5 µg/mL (≈ 1.03 µM) | 0.25 µg/mL (≈ 0.514 µM) | 0.06 µg/mL (≈ 0.123 µM) | 0.25 µg/mL (≈ 0.514 µM) | 1 µg/mL (≈ 2.06 µM) | 0.06 µg/mL (≈ 0.123 µM) | > 300 µM |  |
| CCn1c(=O)cnc2ccc(OCCNC[C@H]3CN(c4cnc5c(n4)NC(=O)CO5)C(=O)O3)nc21 [Compound 11, (S)-6-(5-(((2-((4-ethyl-3-oxo-3,4-dihydropyrido[2,3-b]pyrazin-6-yl)oxy)ethyl)amino)methyl)-2-oxooxazolidin-3-yl)-2H-pyrazino[2,3-b][1,4]oxazin-3(4H)-one] | 0.5 µg/mL (≈ 1.04 µM) | 1 µg/mL (≈ 2.07 µM) | 0.125 µg/mL (≈ 0.259 µM) | 0.5 µg/mL (≈ 1.04 µM) | 2 µg/mL (≈ 4.15 µM) | 0.03 µg/mL (≈ 0.0622 µM) |  |  |
| Cn1c(=O)cnc2cc(Cl)c(OCCNC[C@H]3CN(c4cnc5c(n4)NC(=O)CO5)C(=O)O3)nc21 [Compound 12, (S)-6-(5-(((2-((7-Chloro-4-methyl-3-oxo-3,4-dihydropyrido[2,3-b]pyrazin-6-yl)oxy)ethyl)amino)methyl)-2-oxooxazolidin-3-yl)-2H-pyrazino[2,3-b][1,4]oxazin-3(4H)-one] | 0.5 µg/mL (≈ 0.994 µM) | 0.25 µg/mL (≈ 0.497 µM) | 0.125 µg/mL (≈ 0.249 µM) | 0.25 µg/mL (≈ 0.497 µM) | 4 µg/mL (≈ 7.95 µM) | 0.125 µg/mL (≈ 0.249 µM) | 98 µM |  |
| Cn1c(=O)cnc2ccc(OCCNC[C@H]3CN(c4cnc5c(n4)NC(=O)CS5)C(=O)O3)nc21 [Compound 13, (S)-5-(((2-((4-Methyl-3-oxo-3,4-dihydropyrido[2,3-b]pyrazin-6-yl)oxy)ethyl)amino)methyl)-3-(3-oxo-3,4-dihydro-2H-pyrazino[2,3-b][1,4]thiazin-6-yl)oxazolidin-2-one] | 0.03 µg/mL (≈ 0.0619 µM) | 0.1 µg/mL (≈ 0.206 µM) | 0.03 µg/mL (≈ 0.0619 µM) | 0.03 µg/mL (≈ 0.0619 µM) | 0.5 µg/mL (≈ 1.03 µM) | ≤ 0.03 µg/mL |  |  |
| C[C@@H](O)[C@H]1C(=O)N2C(C(=O)O)=C(S[C@@H]3CN[C@H](C(=O)N(C)C)C3)[C@H](C)[C@H]12 [Meropenem, reference compound] |  |  |  |  |  |  |  | MIC50 (E. coli clinical strains): 0.06 µg/mL (≈ 0.156 µM); MIC90 (E. coli clinical strains): 4 µg/mL (≈ 10.4 µM); Minimum (MIC) (E. coli clinical strains): 0.03 µg/mL; MIC50 [8]: 8 µg/mL (≈ 20.9 µM); MIC90 [8]: 32 µg/mL (≈ 83.4 µM); Minimum (MIC) ([8]; in µg/mL): 0.03125; MIC50 [9]: 1 µg/mL (≈ 2.61 µM); MIC90 [9]: 16 µg/mL (≈ 41.7 µM); Minimum (MIC) [9]: 0.03 µg/mL; MIC50 [10]: 2 µg/mL (≈ 5.22 µM); MIC90 [10]: 8 µg/mL (≈ 20.9 µM); Minimum (MIC) [10]: 0.03 µg/mL; MIC50 [11]: 0.25 µg/mL (≈ 0.652 µM); MIC90 [11]: 16 µg/mL (≈ 41.7 µM); Minimum (MIC) [11]: 0.06 µg/mL; ATCC25922 (MIC) (E. coli ATCC25922): 0.06 µg/mL; ATCC19606 (MIC) (A. baumannii ATCC19606): 0.5 µg/mL; ATCC13883 (MIC) (K. pneumoniae ATCC13883): 0.06 µg/mL; ATCC27853 (MIC) (P. aurigenosa ATCC27853): 0.5 µg/mL |
